In US6914045B2, “Glycopeptide antibiotics” (Wyeth Holdings Corporation, priority 2001, dated 2005):
In brackets after ≈: the same amount, converted by molar mass.

Assays:
Experiment in all cases: in vitro antibacterial evaluation, MIC by broth dilution
Assay type in all cases: cell-based
[1] = tested on: Enterococcus sp.; settings: broth dilution, 18 hours at 35° C.
Summary of the method: (§1)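 MIC = lowest antibiotic concentration preventing visible growth; inoculum 5×10^5 CFU/mL; drug range 64-0.06 μg/mL; Muller-Hinton II […]; NCCLS M7-A2 guidance.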

[2] = tested on: Staphylococcus sp.; settings: broth dilution, 18 hours at 35° C.
Summary of the method: as §1

[3] = tested on: Streptococcus sp.; settings: broth dilution, 18 hours at 35° C.
Summary of the method: as §1

[4] = tested on: Escherichia coli; settings: 18 hours at 35° C.

CC(c1ccccc1)C1NC(=O)CNC(=O)C(CO)NC(=O)C(CC2CNC(=N)N2C2OC(CO)C(O)C(O)C2O)NC(=O)C(CC2CNC(=N)N2)NC(=O)C(Cc2ccc(OC3OC(CO)C(OC4OC(CO)C(O)C(OCc5ccc(OCc6ccccc6)cc5)C4O)C(O)C3O)cc2)NC1=O (stereo not shown) [Example 246b]
MIC Enterococcus avium (GC 4558) [1]: 64 µg/mL (≈ 43.8 µM)
MIC Enterococcus faecalis (ATCC 29212) [1]: 128 µg/mL (≈ 87.7 µM)
MIC Enterococcus faecalis (GC 2242) [1]: 128 µg/mL (≈ 87.7 µM)
MIC Enterococcus faecalis (GC 2691) [1]: 128 µg/mL (≈ 87.7 µM)
MIC Enterococcus faecalis (GC 3059) [1]: 128 µg/mL (≈ 87.7 µM)
MIC Enterococcus faecalis (GC 4552) [1]: 128 µg/mL (≈ 87.7 µM)
MIC Enterococcus faecalis (GC 4553) [1]: 128 µg/mL (≈ 87.7 µM)
MIC Enterococcus faecalis (GC 4554) [1]: >128 µg/mL
MIC Enterococcus faecalis (GC 6189) [1]: 128 µg/mL (≈ 87.7 µM)
MIC Enterococcus faecium (GC 2243) [1]: 128 µg/mL (≈ 87.7 µM)
MIC Enterococcus faecium (GC 4556) [1]: 128 µg/mL (≈ 87.7 µM)
MIC Enterococcus faecium (GC 4557) [1]: 32 µg/mL (≈ 21.9 µM)
MIC Enterococcus faecalis (ATCC 29212) ([1]; strain ATCC 29212): 128 µg/mL (≈ 87.7 µM)
MIC Enterococcus faecalis (GC 2242) ([1]; strain GC 2242): 128 µg/mL (≈ 87.7 µM)
MIC Enterococcus faecium (GC 2243) ([1]; strain GC 2243): 128 µg/mL (≈ 87.7 µM)
MIC Enterococcus faecalis (GC 2691) ([1]; strain GC 2691): 128 µg/mL (≈ 87.7 µM)
MIC Enterococcus faecalis (GC 3059) ([1]; strain GC 3059): 128 µg/mL (≈ 87.7 µM)
MIC Enterococcus faecalis (GC 4552) ([1]; strain GC 4552): 128 µg/mL (≈ 87.7 µM)
MIC Enterococcus faecalis (GC 4553) ([1]; strain GC 4553): 128 µg/mL (≈ 87.7 µM)
MIC Enterococcus faecalis (GC 4554) ([1]; strain GC 4554): >128 µg/mL
MIC Enterococcus faecium (GC 4556) ([1]; strain GC 4556): 128 µg/mL (≈ 87.7 µM)
MIC Enterococcus faecium (GC 4557) ([1]; strain GC 4557): 32 µg/mL (≈ 21.9 µM)
MIC Enterococcus avium (GC 4558) ([1]; strain GC 4558): 64 µg/mL (≈ 43.8 µM)
MIC Enterococcus faecalis (GC 6189) ([1]; strain GC 6189): 128 µg/mL (≈ 87.7 µM)
MIC Coagulase Negative Staphylococcus (GC 4547) [2]: 64 µg/mL (≈ 43.8 µM)
MIC Coagulase Negative Staphylococcus (GC 4548) [2]: 64 µg/mL (≈ 43.8 µM)
MIC Coagulase Negative Staphylococcus (GC 4549) [2]: 32 µg/mL (≈ 21.9 µM)
MIC Coagulase Negative Staphylococcus (GC 4551) [2]: 64 µg/mL (≈ 43.8 µM)
MIC Coagulase Negative Staphylococcus (GC 6257) [2]: 64 µg/mL (≈ 43.8 µM)
MIC Staphylococcus aureus (ATCC 29213) [2]: 64 µg/mL (≈ 43.8 µM)
MIC Staphylococcus aureus (GC 1131) [2]: 128 µg/mL (≈ 87.7 µM)
MIC Staphylococcus aureus (GC 3051) [2]: 64 µg/mL (≈ 43.8 µM)
MIC Staphylococcus aureus (GC 3053) [2]: 128 µg/mL (≈ 87.7 µM)
MIC Staphylococcus aureus (GC 4541) [2]: 64 µg/mL (≈ 43.8 µM)
MIC Staphylococcus aureus (GC 4542) [2]: 64 µg/mL (≈ 43.8 µM)
MIC Staphylococcus aureus (GC 4544) [2]: 64 µg/mL (≈ 43.8 µM)
MIC Staphylococcus aureus (GC 4545) [2]: 64 µg/mL (≈ 43.8 µM)
MIC Staphylococcus aureus-SMITH (GC 4543) [2]: 64 µg/mL (≈ 43.8 µM)
MIC Staphylococcus haemolyticus (GC 4546) [2]: 128 µg/mL (≈ 87.7 µM)
MIC Staphylococcus aureus (ATCC 29213) ([2]; strain ATCC 29213): 64 µg/mL (≈ 43.8 µM)
MIC Staphylococcus aureus (GC 1131) ([2]; strain GC 1131): 128 µg/mL (≈ 87.7 µM)
MIC Staphylococcus aureus (GC 3051) ([2]; strain GC 3051): 64 µg/mL (≈ 43.8 µM)
MIC Staphylococcus aureus (GC 3053) ([2]; strain GC 3053): 128 µg/mL (≈ 87.7 µM)
MIC Staphylococcus aureus (GC 4541) ([2]; strain GC 4541): 64 µg/mL (≈ 43.8 µM)
MIC Staphylococcus aureus (GC 4542) ([2]; strain GC 4542): 64 µg/mL (≈ 43.8 µM)
MIC Staphylococcus aureus-SMITH (GC 4543) ([2]; strain GC 4543): 64 µg/mL (≈ 43.8 µM)
MIC Staphylococcus aureus (GC 4544) ([2]; strain GC 4544): 64 µg/mL (≈ 43.8 µM)
MIC Staphylococcus aureus (GC 4545) ([2]; strain GC 4545): 64 µg/mL (≈ 43.8 µM)
MIC Staphylococcus haemolyticus (GC 4546) ([2]; strain GC 4546): 128 µg/mL (≈ 87.7 µM)
MIC Coagulase Negative Staphylococcus (GC 4547) ([2]; strain GC 4547): 64 µg/mL (≈ 43.8 µM)
MIC Coagulase Negative Staphylococcus (GC 4548) ([2]; strain GC 4548): 64 µg/mL (≈ 43.8 µM)
MIC Coagulase Negative Staphylococcus (GC 4549) ([2]; strain GC 4549): 32 µg/mL (≈ 21.9 µM)
MIC Coagulase Negative Staphylococcus (GC 4551) ([2]; strain GC 4551): 64 µg/mL (≈ 43.8 µM)
MIC Coagulase Negative Staphylococcus (GC 6257) ([2]; strain GC 6257): 64 µg/mL (≈ 43.8 µM)
MIC Streptococcus agalactiae (GC 4564) [3]: 64 µg/mL (≈ 43.8 µM)
MIC Streptococcus pneumoniae (ATCC 6301) [3]: 32 µg/mL (≈ 21.9 µM)
MIC Streptococcus pneumoniae (GC 1894) [3]: 32 µg/mL (≈ 21.9 µM)
MIC Streptococcus pneumoniae (GC 4565) [3]: 64 µg/mL (≈ 43.8 µM)
MIC Streptococcus pyogenes (GC 4563) [3]: 64 µg/mL (≈ 43.8 µM)
MIC Streptococcus pneumoniae (ATCC 6301) ([3]; strain ATCC 6301): 32 µg/mL (≈ 21.9 µM)
MIC Streptococcus pneumoniae (GC 1894) ([3]; strain GC 1894): 32 µg/mL (≈ 21.9 µM)
MIC Streptococcus pyogenes (GC 4563) ([3]; strain GC 4563): 64 µg/mL (≈ 43.8 µM)
MIC Streptococcus agalactiae (GC 4564) ([3]; strain GC 4564): 64 µg/mL (≈ 43.8 µM)
MIC Streptococcus pneumoniae (GC 4565) ([3]; strain GC 4565): 64 µg/mL (≈ 43.8 µM)
MIC Escherichia coli (ATCC 25922) [4]: >128 µg/mL
MIC Escherichia coli (GC 4559) [4]: >128 µg/mL
MIC Escherichia coli (GC 4560) [4]: 32 µg/mL (≈ 21.9 µM)
